Measured values taken from patent US11098032B2, “Pyran dervatives as CYP11A1 (cytochrome P450 monooxygenase 11A1) inhibitors” (ORION CORPORATION, priority 2016, dated 2021).

Biological target: T1, CYP11A1 (Homo sapiens, UniProt P05108)
T1 construct: human H295R adrenocortical carcinoma cell line was used as source of enzyme; endogenous in cells; host or cells: H295R human adrenocortical carcinoma cells
T1 sequence (P05108 40-521): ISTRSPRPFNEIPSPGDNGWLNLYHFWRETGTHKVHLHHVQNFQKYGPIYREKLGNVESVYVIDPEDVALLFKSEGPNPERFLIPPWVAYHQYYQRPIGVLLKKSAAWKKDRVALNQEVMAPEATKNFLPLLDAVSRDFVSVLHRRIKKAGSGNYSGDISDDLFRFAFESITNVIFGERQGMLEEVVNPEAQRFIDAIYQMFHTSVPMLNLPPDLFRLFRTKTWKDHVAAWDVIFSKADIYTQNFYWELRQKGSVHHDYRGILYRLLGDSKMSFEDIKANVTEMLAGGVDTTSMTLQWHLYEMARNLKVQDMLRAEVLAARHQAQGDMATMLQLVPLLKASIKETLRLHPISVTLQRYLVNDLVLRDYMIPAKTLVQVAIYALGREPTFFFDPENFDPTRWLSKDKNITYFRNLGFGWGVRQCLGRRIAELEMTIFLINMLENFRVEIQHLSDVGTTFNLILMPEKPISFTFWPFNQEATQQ
Experiment: CYP11A1 inhibition: modified isocaproic acid release assay (IARA) in H295R cells
Format: cell-based
Details: human H295R adrenocortical carcinoma cells treated three days, 3 nM [24,25-3H]-labelled cholesterol, 1% DMSO, 10 concentrations in duplicates; read-out: IC50 of the test compounds on CYP11A1 inhibition
In short: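 H295R adrenocortical cells treated three days with test compounds at 10 concentrations in duplicate plus 3 nM [24,25-3H]-cholesterol, 1% DMSO final. Released radiolabelled isocaproic acid measured by scintillation counting after dextran-coated charcoal extraction; IC50 determined.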

Compound | IC50
CS(=N)(=O)c1ccc(COc2coc(CN3Cc4ccccc4C3)cc2=O)cc1 (stereo not shown) [Compound 86, 2-(Isoindolin-2-ylmethyl)-5-((4-(S-methylsulfonimidoyl)benzyl)oxy)-4H-pyran-4-one] | 150 to 300 nM
CS(=N)(=O)c1ccc(COc2coc(CN3CCc4ccccc4C3)cc2=O)cc1 (stereo not shown) [Compound 87, 2-((3,4-Dihydroisoquinolin-2(1H)-yl)methyl)-5-((4-(S-methylsulfonimidoyl)-benzyl)oxy)-4H-pyran-4-one] | 301 to 2000 nM
CS(=N)(=O)c1ccc(COc2coc(CN3Cc4ccc(F)cc4C3)cc2=O)cc1 (stereo not shown) [Compound 88, 2-((5-Fluoroisoindolin-2-yl)methyl)-5-((4-(S-methylsulfonimidoyl)benzyl)oxy)-4H-pyran-4-one] | 150 to 300 nM
CS(=N)(=O)c1ccc(COc2coc(CN3Cc4ccc(C(F)(F)F)cc4C3)cc2=O)cc1 (stereo not shown) [Compound 89, 5-((4-(S-Methylsulfonimidoyl)benzyl)oxy)-2-((5-(trifluoromethyl)isoindolin-2-yl)methyl)-4H-pyran-4-one] | < 150 nM
CS(=N)(=O)c1ccc(COc2coc(CN3Cc4ccc(OC(F)(F)F)cc4C3)cc2=O)cc1 (stereo not shown) [Compound 90, 5-((4-(S-Methylsulfonimidoyl)benzyl)oxy)-2-((5-(trifluoromethoxy)isoindolin-2-yl)methyl)-4H-pyran-4-one] | < 150 nM
CC(c1cc(=O)c(OCc2ccc(S(C)(=N)=O)cc2)co1)N1Cc2ccccc2C1 (stereo not shown) [Compound 91, 2-(1-(Isoindolin-2-yl)ethyl)-5-((4-(S-methylsulfonimidoyl)benzyl)oxy)-4H-pyran-4-one] | < 150 nM
CN=S(C)(=O)c1ccc(COc2coc(CN3Cc4ccccc4C3)cc2=O)cc1 (stereo not shown) [Compound 92, 5-((4-(N,S-Dimethylsulfonimidoyl)benzyl)oxy)-2-(isoindolin-2-ylmethyl)-4H-pyran-4-one] | < 150 nM
Cc1ccc(S(=O)(=O)N=S(C)c2ccc(COc3coc(CN4Cc5ccccc5C4)cc3=O)cc2)cc1 (stereo not shown) [Compound 93, N-{[4-({[6-(1,3-dihydro-2H-isoindol-2-ylmethyl)-4-oxo-4H-pyran-3-yl]oxy}-methyl)phenyl](methyl)-λ^4-sulfanylidene}-4-methylbenzenesulfonamide] | < 150 nM
CC(=O)N=S(C)(=O)c1ccc(COc2coc(CN3Cc4ccccc4C3)cc2=O)cc1 (stereo not shown) [Compound 94, N-{[4-({[6-(1,3-dihydro-2H-isoindol-2-ylmethyl)-4-oxo-4H-pyran-3-yl]oxy}-methyl)phenyl](methyl)oxido-λ^6-sulfanylidene}] | 150 to 300 nM
O=C(c1ccc(COc2coc(CN3Cc4ccccc4C3)cc2=O)c(F)c1)N1CCC1 [Compound 95, 5-((4-(Azetidine-1-carbonyl)-2-fluorobenzyl)oxy)-2-(isoindolin-2-ylmethyl)-4H-pyran-4-one] | < 150 nM
O=C(NC1CCSC1=O)c1ccc(COc2coc(CN3Cc4ccccc4C3)cc2=O)cc1 (stereo not shown) [Compound 96, 4-(((6-(Isoindolin-2-ylmethyl)-4-oxo-4H-pyran-3-yl)oxy)methyl)-N-(2-oxotetra-hydrothiophen-3-yl)benzamide] | 301 to 2000 nM
CCN=S(C)(=O)c1ccc(COc2coc(CN3Cc4ccccc4C3)cc2=O)cc1 (stereo not shown) [Compound 97, 5-((4-(N-Ethyl-S-methylsulfonimidoyl)benzyl)oxy)-2-(isoindolin-2-ylmethyl)-4H-pyran-4-one] | 150 to 300 nM
CS(=O)(=O)N1CC=C(COc2coc(CN3Cc4ccccc4C3)cc2=O)CC1 [Compound 98, 2-(Isoindolin-2-ylmethyl)-5-((1-(methylsulfonyl)-1,2,3,6-tetrahydropyridin-4-yl)methoxy)-4H-pyran-4-one] | 150 to 300 nM
CCS(=O)(=O)N1CC=C(COc2coc(CN3Cc4ccccc4C3)cc2=O)CC1 [Compound 99, 5-((1-(Ethylsulfonyl)-1,2,3,6-tetrahydropyridin-4-yl)methoxy)-2-(isoindolin-2-ylmethyl)-4H-pyran-4-one] | 150 to 300 nM

Continued, values first:

IC50 | Compound
150 to 300 nM | CC(C)S(=O)(=O)N1CC=C(COc2coc(CN3Cc4ccccc4C3)cc2=O)CC1 [Compound 100, 2-(Isoindolin-2-ylmethyl)-5-((1-(isopropylsulfonyl)-1,2,3,6-tetrahydropyridin-4-yl)methoxy)-4H-pyran-4-one]
150 to 300 nM | CCS(=N)(=O)c1ccc(COc2coc(CN3Cc4ccccc4C3)cc2=O)cc1 (stereo not shown) [Compound 101, 5-((4-(Ethylsulfonimidoyl)benzyl)oxy)-2-(isoindolin-2-ylmethyl)-4H-pyran-4-one]
150 to 300 nM | CCS(=N)(=O)c1ccc(COc2coc(CN3Cc4ccc(F)cc4C3)cc2=O)cc1 (stereo not shown) [Compound 102, 5-((4-(Ethylsulfonimidoyl)benzyl)oxy)-2-((5-fluoroisoindolin-2-yl)methyl)-4H-pyran-4-one]
< 150 nM | CC(C)S(=N)(=O)c1ccc(COc2coc(CN3Cc4ccccc4C3)cc2=O)cc1 (stereo not shown) [Compound 103, 2-(Isoindolin-2-ylmethyl)-5-((4-(propan-2-ylsulfonimidoyl)benzyl)oxy)-4H-pyran-4-one]
< 150 nM | CS(=O)(=O)N1CCC(COc2coc(CN3Cc4ccccc4C3)cc2=O)=C(F)C1 [Compound 104, 5-((5-Fluoro-1-(methylsulfonyl)-1,2,3,6-tetrahydropyridin-4-yl)methoxy)-2-(isoindolin-2-ylmethyl)-4H-pyran-4-one]
301 to 2000 nM | O=c1cc(CN2Cc3ccccc3C2)occ1OCc1cccc([N+](=O)[O-])c1 [Compound 105, 2-(Isoindolin-2-ylmethyl)-5-((3-nitrobenzyl)oxy)-4H-pyran-4-one]
301 to 2000 nM | CN1Cc2cc(COc3coc(CN4Cc5ccccc5C4)cc3=O)ccc2C1=O [Compound 106, 5-(((6-(Isoindolin-2-ylmethyl)-4-oxo-4H-pyran-3-yl)oxy)methyl)-2-methyl-isoindolin-1-one]
150 to 300 nM | O=c1cc(CN2Cc3ccccc3C2)occ1OCc1ccc(-n2ccnn2)cc1 [Compound 107, 5-((4-(1H-1,2,3-triazol-1-yl)benzyl)oxy)-2-(isoindolin-2-ylmethyl)-4H-pyran-4-one]
150 to 300 nM | O=c1cc(CN2Cc3ccccc3C2)occ1OCc1ccc(-n2cccn2)cc1 [Compound 108, 5-((4-(1H-Pyrazol-1-yl)benzyl)oxy)-2-(isoindolin-2-ylmethyl)-4H-pyran-4-one]
< 150 nM | O=c1cc(CN2Cc3ccccc3C2)occ1OCc1ccc(-c2ncco2)cc1 [Compound 109, 2-(Isoindolin-2-ylmethyl)-5-((4-(oxazol-2-yl)benzyl)oxy)-4H-pyran-4-one]
301 to 2000 nM | COc1cc(COc2coc(CN3Cc4ccccc4C3)cc2=O)ccn1 [Compound 110, 2-(Isoindolin-2-ylmethyl)-5-((2-methoxypyridin-4-yl)methoxy)-4H-pyran-4-one]
< 150 nM | O=c1cc(CN2Cc3ccccc3C2)occ1OCc1ccc(C2(O)CCC2)cc1 [Compound 111, 5-((4-(1-Hydroxycyclobutyl)benzyl)oxy)-2-(isoindolin-2-ylmethyl)-4H-pyran-4-one]
301 to 2000 nM | CN(C)C(=O)c1ccc(CCOc2coc(CN3Cc4ccccc4C3)cc2=O)cc1 [Compound 112, 4-(2-((6-(Isoindolin-2-ylmethyl)-4-oxo-4H-pyran-3-yl)oxy)ethyl)-N,N-dimethylbenzamide]
< 150 nM | CS(=O)(=O)NCc1ccc(COc2coc(CN3Cc4ccccc4C3)cc2=O)cc1 [Compound 113, N-(4-(((6-(Isoindolin-2-ylmethyl)-4-oxo-4H-pyran-3-yl)oxy)methyl)benzyl)-methanesulfonamide]
< 150 nM | O=c1cc(CN2Cc3ccccc3C2)occ1OCc1ccc(C2(O)COC2)cc1 [Compound 114, 5-((4-(3-Hydroxyoxetan-3-yl)benzyl)oxy)-2-(isoindolin-2-ylmethyl)-4H-pyran-4-one]
< 150 nM | O=c1cc(CN2Cc3ccc(F)cc3C2)occ1OCc1ccc(C2(O)COC2)cc1 [Compound 115, 2-((5-Fluoroisoindolin-2-yl)methyl)-5-((4-(3-hydroxyoxetan-3-yl)benzyl)oxy)-4H-pyran-4-one]
< 150 nM | O=c1cc(CN2Cc3ccc(C(F)(F)F)cc3C2)occ1OCc1ccc(C2(O)COC2)cc1 [Compound 116, 5-((4-(3-Hydroxyoxetan-3-yl)benzyl)oxy)-2-((5-(trifluoromethyl)isoindolin-2-yl)methyl)-4H-pyran-4-one]
301 to 2000 nM | O=c1cc(CN2CCc3ccccc3C2)occ1OCc1ccc(C2(O)COC2)cc1 [Compound 117, 2-((3,4-Dihydroisoquinolin-2(1H)-yl)methyl)-5-((4-(3-hydroxyoxetan-3-yl)-benzyl)oxy)-4H-pyran-4-one]
301 to 2000 nM | N#Cc1ccc(COc2coc(CN3CCc4ccccc4C3)cc2=O)cc1Cl [Compound 118, 2-Chloro-4-(((6-((3,4-dihydroisoquinolin-2(1H)-yl)methyl)-4-oxo-4H-pyran-3-yl)oxy)methyl)benzonitrile]
301 to 2000 nM | CN(C)C(=O)c1ccc(COc2coc(CN3CCc4ccccc4C3)cc2=O)cc1 [Compound 119, 4-(((6-((3,4-Dihydroisoquinolin-2(1H)-yl)methyl)-4-oxo-4H-pyran-3-yl)oxy)-methyl)-N,N-dimethylbenzamide]
